# Measurements as given in patent US20050010368A1, “Method for the prediction of binding targets and the design of ligands” (priority 1997, published 2005).
# Like-named read-outs stand apart in the source and are kept apart here.
# Assays:
# endothiapepsin [1] = biological target: T1, endothiapepsin (Cryphonectria parasitica, UniProt P11838); format: biochemical
# Text: The ΔΔG values are relative to the wild type. […] To test the structure-based thermodynamic prediction, the A5F mutant of pepstatin A was synthesized and the overall inhibition constant determined experimentally.
# endothiapepsin [2] = biological target: T1, endothiapepsin
# Text: The second mutation considered in this study involved the addition of an amino acid at the carboxy terminus of the peptide.
# endothiapepsin [3] = biological target: T1, endothiapepsin; details: relative to wild type pepstatin A
# Text: In all cases, the coordinate sets for the complexes between the protein and the mutated peptides are generated by using the coordinates of the wild type complex as a template. Replacement mutants are created by replacing the original side chain with the desired mutation, leaving the backbone in the original conformation. For mutations that involve the addition of an extra amino acid at either end of the peptide chain, the backbone torsional angles are also included in the minimization.
# The inhibitor contains two residues of the unusual amino acid statine (Sta: 4(S)-amino-3(S)-hydroxy-6methylheptanoic acid). […] Two different mutations of pepstatin A were studied. […] Twelve possible mutations at this position were considered (Cys, Gly, His, Ile, Leu, Met, Phe, Ser, Thr, Trp, Tyr, Val). For each of these mutations, the most probable conformation was identified. In the second case, the addition of an amino acid at the carboxy terminus of pepstatin A was considered. In this case, a simultaneous optimization of side chain and backbone conformations was performed in order to identify the most probable conformation.
# endothiapepsin [4] = biological target: T1, endothiapepsin; details: reference cited, cited from earlier work
# [5] = biological target: T2, V82A mutant HIV-1 protease (Human immunodeficiency virus type 1 group M subtype B, UniProt P04585, V570A); details: V82A mutant vs wild type; Baldwin et al., 1995; cited from earlier work
# T2 construct: the complex of A77003 with the V82A mutant HIV-1 protease
# HIV-1 protease = HIV-1 protease (Human immunodeficiency virus type 1 group M subtype B, UniProt P04585); assay: Structure-based thermodynamic calculation of inhibitor binding to HIV-1 protease
# Experimental: In all cases presented here the Gibbs energy of binding, ΔG, was calculated from the published crystallographic structures using procedures previously described (D'Aquino et al., 1996; Gomez et al., 1995(a); Gomez et al., 1995(b); Hilser et al., 1996(b); Luque et al., 1996). These calculations require the structures of the complex as well as the structures of the unligated protein and unligated inhibitor. In this approach, the generic portion of the Gibbs energy, ΔGgen, is calculated from a separate computation of its enthalpy and entropy components. […]
# The most significant structural/solvation contributions to the total free energy of binding are contained in the term […] which is calculated by estimating separately its enthalpy and entropy components. […]
# The changes in accessible surface areas were calculated by implementing the Lee and Richards algorithm (Lee et al., 1971). […]
# In binding or folding, the bulk of the enthalpy change originates from the formation of internal interactions (van der Waals, hydrogen bonds, etc.) and the parallel desolvation of the interacting groups. […] For example, it has been shown that for binding processes in which protons are either released or absorbed the measured enthalpy depends on the ionization enthalpy of the buffer (Gomez et al., 1995(b)). […]
# T1 sequence (P11838 90-419): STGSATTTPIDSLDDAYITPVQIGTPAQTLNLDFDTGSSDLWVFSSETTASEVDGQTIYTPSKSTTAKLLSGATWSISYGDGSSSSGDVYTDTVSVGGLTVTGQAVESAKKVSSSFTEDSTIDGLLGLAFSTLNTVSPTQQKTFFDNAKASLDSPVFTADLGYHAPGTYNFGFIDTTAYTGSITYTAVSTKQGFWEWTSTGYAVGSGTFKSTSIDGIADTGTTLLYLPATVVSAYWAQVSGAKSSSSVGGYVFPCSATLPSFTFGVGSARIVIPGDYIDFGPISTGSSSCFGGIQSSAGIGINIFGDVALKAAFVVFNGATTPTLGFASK
compound,measurement,setting,value
Iva-Val-Val-Sta-Ala-Sta-Glu,binding affinity relative to wild type pepstatin A,endothiapepsin [1],lower affinity
same,ΔG(25)exp,endothiapepsin [1],-11.3 kcal/mol
same,enthalpy change (ΔH) of binding,"endothiapepsin [2]; 16° C., calorimetric",-4.6 ± 0.1 kcal/mol
same,heat capacity change (ΔCp),endothiapepsin [2]; from temperature dependence of the binding enthalpy change,−260±20 cal/K•mol
Iva-Val-Val-Sta-Phe-Sta,Gibbs energy of binding more favorable than the wild type,endothiapepsin [3],about 1 kcal/mol
same,binding affinity relative to wild type pepstatin A,endothiapepsin [1],higher affinity
same,deviation of ΔG from its predicted value,endothiapepsin [1],0.2 kcal/mol
same,ΔG(25)exp,endothiapepsin [1],-13.3 kcal/mol
Iva-Val-Val-Sta-Ala-Sta [Pepstatin A],ΔG(25)exp,endothiapepsin [1]; experimental binding Gibbs energy at 25° C.,-12.7 kcal/mol
same,ΔH of binding,endothiapepsin [4]; measured under the same conditions (16° C.),-4.1 kcal/mol
same,ΔCp of binding,endothiapepsin [4]; measured under the same conditions,−310 cal/K•mol
CC(C)[C@H](NC(=O)N(C)Cc1ccccn1)C(=O)N[C@@H](Cc1ccccc1)[C@H](O)[C@H](O)[C@H](Cc1ccccc1)NC(=O)[C@@H](NC(=O)N(C)Cc1ccccn1)C(C)C [A77003],reduction in binding affinity measured experimentally,[5],4 fold
CC(C)CN(C[C@@H](O)[C@H](Cc1ccccc1)NC(=O)O[C@H]1CCOC1)S(=O)(=O)c1ccc(N)cc1 [VX478],ΔΔG,HIV-1 protease,-0.563 kcal/mol
